{"source": "patent US8758816B2", "about": "“Compositions comprising azelastine and methods of use thereof” (priority 2004, dated 2014)", "tested_on": "patients with seasonal allergic rhinitis (SAR)", "assay": "MP 428 study: adverse events, Safety Population", "assay_type": "in vivo, human", "experimental": "A two-week, randomized, double-blind study, which evaluated the effects of the co-administration of ASTELIN® (azelastine hydrochloride (HCl)) and FLONASE® (fluticasone propionate) compared to either product alone in patients with seasonal allergic rhinitis (SAR) was conducted during the 2006 Texas mountain cedar season. After a 5-day placebo lead-in period, 151 patients with moderate-to-severe allergic rhinitis symptoms were randomized to either: (1) (49 total patients) ASTELIN® (azelastine hydrochloride (HCl)) plus placebo saline nasal spray 2 sprays per nostril, 15 minutes apart, twice daily (AM & PM); (2) (50 total patients) FLONASE® (fluticasone propionate) plus placebo saline nasal spray, 2 sprays per nostril, 15 minutes apart, once daily (AM) and two sessions of placebo saline nasal spray, 2 sprays per nostril, 15 minutes apart (PM); or (3) (52 total patients) the co-administration of ASTELIN® (azelastine hydrochloride (HCl)) 2 sprays per nostril plus FLONASE® (fluticasone propionate) 2 sprays per nostril (AM), 15 minutes apart, and ASTELIN® (azelastine hydrochloride (HCl)) 2 sprays per nostril plus placebo saline nasal spray, 15 minutes apart, (PM) for a 2-week double-blind treatment period.\nThe most common adverse events (AEs) were bitter taste (8.2% in ASTELIN® (azelastine hydrochloride (HCl)) group, 2.0% in FLONASE® (fluticasone propionate) group, 13.5% in co-administration group) and headache (4.1% in ASTELIN® (azelastine hydrochloride (HCl)) group, 4.0% in FLONASE® (fluticasone propionate) group, 5.8% in co-administration group). No other AE was reported by more than one patient in any treatment group. There were no discontinuations due to AEs.", "key": {"[1]": {"conditions": "Possibly related to study drug, Safety Population"}, "[2]": {"conditions": "Probably related to study drug, Safety Population"}, "[3]": {"conditions": "Total (possibly or probably related), Safety Population"}}, "note": "Counter-ions that a name gives are not always drawn.", "data": [{"smiles": "CN1CCCC(n2nc(Cc3ccc(Cl)cc3)c3ccccc3c2=O)CC1", "note": "(racemic) [Azelastine, (±)-1-(2H)-phthalazinone, 4-[(4-chlorophenyl)methyl]-2-(hexahydro-1-methyl-1H-azepin-4-yl)-, mono-hydrochloride]", "values": [{"measurement": "Primary Reason for Discontinuation From Study: Adverse Event", "setting": "All Randomized Patients", "value": "0 (0.0) N (%)"}, {"measurement": "Number (%) Patients With Treatment-Related AEs by Maximum Severity", "setting": "Mild", "value": "1 (2.0) Number (%)"}, {"measurement": "Number (%) Patients With Treatment-Related AEs by Maximum Severity", "setting": "Moderate", "value": "0 (0.0) Number (%)"}, {"measurement": "Treatment-Related Adverse Events: Any Adverse Event", "setting": "[1]", "value": "1 (2.0) No. of Patients (%)"}, {"measurement": "Treatment-Related Adverse Events: DRY MOUTH", "setting": "[1]", "value": "0 (0.0) No. of Patients (%)"}, {"measurement": "Treatment-Related Adverse Events: DYSGEUSIA", "setting": "[1]", "value": "1 (2.0) No. of Patients (%)"}, {"measurement": "Treatment-Related Adverse Events: EPISTAXIS", "setting": "[1]", "value": "0 (0.0) No. of Patients (%)"}, {"measurement": "Treatment-Related Adverse Events: GASTROINTESTINAL DISORDERS, Any Preferred Term", "setting": "[1]", "value": "1 (2.0) No. of Patients (%)"}, {"measurement": "Treatment-Related Adverse Events: HEADACHE", "setting": "[1]", "value": "0 (0.0) No. of Patients (%)"}, {"measurement": "Treatment-Related Adverse Events: NASAL DISCOMFORT", "setting": "[1]", "value": "0 (0.0) No. of Patients (%)"}, {"measurement": "Treatment-Related Adverse Events: NERVOUS SYSTEM DISORDERS, Any Preferred Term", "setting": "[1]", "value": "0 (0.0) No. of Patients (%)"}, {"measurement": "Treatment-Related Adverse Events: RESPIRATORY, THORACIC AND MEDIASTINAL DISORDERS, Any Preferred Term", "setting": "[1]", "value": "0 (0.0) No. of Patients (%)"}, {"measurement": "Treatment-Related Adverse Events: STOMACH DISCOMFORT", "setting": "[1]", "value": "0 (0.0) No. of Patients (%)"}, {"measurement": "Treatment-Related Adverse Events: Any Adverse Event", "setting": "[2]", "value": "3 (6.1) No. of Patients (%)"}, {"measurement": "Treatment-Related Adverse Events: DRY MOUTH", "setting": "[2]", "value": "0 (0.0) No. of Patients (%)"}, {"measurement": "Treatment-Related Adverse Events: DYSGEUSIA", "setting": "[2]", "value": "3 (6.1) No. of Patients (%)"}, {"measurement": "Treatment-Related Adverse Events: EPISTAXIS", "setting": "[2]", "value": "0 (0.0) No. of Patients (%)"}, {"measurement": "Treatment-Related Adverse Events: GASTROINTESTINAL DISORDERS, Any Preferred Term", "setting": "[2]", "value": "3 (6.1) No. of Patients (%)"}, {"measurement": "Treatment-Related Adverse Events: HEADACHE", "setting": "[2]", "value": "0 (0.0) No. of Patients (%)"}, {"measurement": "Treatment-Related Adverse Events: NASAL DISCOMFORT", "setting": "[2]", "value": "0 (0.0) No. of Patients (%)"}, {"measurement": "Treatment-Related Adverse Events: NERVOUS SYSTEM DISORDERS, Any Preferred Term", "setting": "[2]", "value": "0 (0.0) No. of Patients (%)"}, {"measurement": "Treatment-Related Adverse Events: RESPIRATORY, THORACIC AND MEDIASTINAL DISORDERS, Any Preferred Term", "setting": "[2]", "value": "0 (0.0) No. of Patients (%)"}, {"measurement": "Treatment-Related Adverse Events: STOMACH DISCOMFORT", "setting": "[2]", "value": "0 (0.0) No. of Patients (%)"}, {"measurement": "Number (%) Patients With Any AEs: All Treatment-Related AEs", "setting": "Safety Population", "value": "4 (8.2) Number (%)"}, {"measurement": "Number (%) of Deaths", "setting": "Safety Population", "value": "0 (0.0) Number (%)"}, {"measurement": "Number (%) of Patients With Serious AEs", "setting": "Safety Population", "value": "0 (0.0) Number (%)"}, {"measurement": "Number of Adverse Events Reported: All Treatment-Emergent AEs", "setting": "Safety Population", "value": 9}, {"measurement": "Number of Adverse Events Reported: All Treatment-Related AEs", "setting": "Safety Population", "value": 4}, {"measurement": "Number (%) Patients With Treatment-Related AEs by Maximum Severity", "setting": "Severe", "value": "3 (6.1) Number (%)"}, {"measurement": "Treatment-Emergent AE: Any Adverse Event", "setting": "Total", "value": "8 (16.3) No. of Patients (%)"}, {"measurement": "Treatment-Emergent AE: DRY MOUTH", "setting": "Total", "value": "0 (0.0) No. of Patients (%)"}, {"measurement": "Treatment-Emergent AE: DYSGEUSIA", "setting": "Total", "value": "4 (8.2) No. of Patients (%)"}, {"measurement": "Treatment-Emergent AE: EAR AND LABYRINTH DISORDERS, Any Preferred Term", "setting": "Total", "value": "1 (2.0) No. of Patients (%)"}, {"measurement": "Treatment-Emergent AE: EAR PAIN", "setting": "Total", "value": "1 (2.0) No. of Patients (%)"}, {"measurement": "Treatment-Emergent AE: EPISTAXIS", "setting": "Total", "value": "0 (0.0) No. of Patients (%)"}, {"measurement": "Treatment-Emergent AE: GASTROINTESTINAL DISORDERS, Any Preferred Term", "setting": "Total", "value": "4 (8.2) No. of Patients (%)"}, {"measurement": "Treatment-Emergent AE: HEADACHE", "setting": "Total", "value": "2 (4.1) No. of Patients (%)"}, {"measurement": "Treatment-Emergent AE: MUSCULOSKELETAL AND CONNECTIVE TISSUE DISORDERS, Any Preferred Term", "setting": "Total", "value": "1 (2.0) No. of Patients (%)"}, {"measurement": "Treatment-Emergent AE: MYALGIA", "setting": "Total", "value": "0 (0.0) No. of Patients (%)"}, {"measurement": "Treatment-Emergent AE: NASAL DISCOMFORT", "setting": "Total", "value": "0 (0.0) No. of Patients (%)"}, {"measurement": "Treatment-Emergent AE: NECK PAIN", "setting": "Total", "value": "1 (2.0) No. of Patients (%)"}, {"measurement": "Treatment-Emergent AE: NERVOUS SYSTEM DISORDERS, Any Preferred Term", "setting": "Total", "value": "2 (4.1) No. of Patients (%)"}, {"measurement": "Treatment-Emergent AE: PHARYNGOLARYNGEAL PAIN", "setting": "Total", "value": "1 (2.0) No. of Patients (%)"}, {"measurement": "Treatment-Emergent AE: RESPIRATORY, THORACIC AND MEDIASTINAL DISORDERS, Any Preferred Term", "setting": "Total", "value": "1 (2.0) No. of Patients (%)"}, {"measurement": "Treatment-Emergent AE: STOMACH DISCOMFORT", "setting": "Total", "value": "0 (0.0) No. of Patients (%)"}, {"measurement": "Treatment-Related Adverse Events: Any Adverse Event", "setting": "[3]", "value": "4 (8.2) No. of Patients (%)"}, {"measurement": "Treatment-Related Adverse Events: DRY MOUTH", "setting": "[3]", "value": "0 (0.0) No. of Patients (%)"}, {"measurement": "Treatment-Related Adverse Events: DYSGEUSIA", "setting": "[3]", "value": "4 (8.2) No. of Patients (%)"}, {"measurement": "Treatment-Related Adverse Events: EPISTAXIS", "setting": "[3]", "value": "0 (0.0) No. of Patients (%)"}, {"measurement": "Treatment-Related Adverse Events: GASTROINTESTINAL DISORDERS, Any Preferred Term", "setting": "[3]", "value": "4 (8.2) No. of Patients (%)"}, {"measurement": "Treatment-Related Adverse Events: HEADACHE", "setting": "[3]", "value": "0 (0.0) No. of Patients (%)"}, {"measurement": "Treatment-Related Adverse Events: NASAL DISCOMFORT", "setting": "[3]", "value": "0 (0.0) No. of Patients (%)"}]}]}
